Measured values from patent US5563044A, “Process for the enzymatic preparation of GRF(1-44)NH2” (Hoffmann-La Roche Inc., priority 1995, dated 1996).
Ends that are not written are not given here.

Assays:
[1] = tested on: rat pituitary cell cultures; assay: In vitro bioassay in rat pituitary cell cultures with a specific rat growth hormone radioimmunoassay; type: cell-based; details: relative potency; rat pituitary in vitro bioassay in which the potency of GRF(1-44)-NH2 standard is 1.00; enzymatically prepared product of Example 1
Description: All amino acid derivatives were of the L-configuration and purchased from Bachem (Torrance, Calif.). Porcine trypsin (Sigma, Type IX) was assayed against N^α benzoyl-L-arginine ethyl ester (BAEE) and the specific activity determined to be 1.85×10^4 U/mg. It was treated with N-tosyl-L-phenylalaninechloromethylketone (TPCK) [G. Schoellman and E. Shaw, Biochemistry, 2, 252 ([…])] and dialyzed extensively against distilled water and lyophilized to give 2.02×10^4 U/mg. N,N-Dimethylacetamide (Kodak, Spectro Grade) and 1,4-butanediol (Sigma, Gold Label) were dried over 3A sieves. Tryptic digests were carried out in solutions of the peptide (1 mg/mL) and bovine trypsin (Millipore, 0.1 mg/mL) in 0.5M NH4 HCO3 (pH 8.0) for 20 hours. All pH measurements were made with a glass electrode. In vitro bioassays were done in rat pituitary cell cultures and using a specific rat growth hormone radioimmunoassay as previously described (P. Brazeau et al., Proc. Natl. Acad. Sci. USA, 79, 7909 (1982). GRF(1-43)-OH was prepared by solid-phase synthesis as follows:
The final yield of GRF(1-44)-NH2 was 1.95 mg ([…], 37%). FAB-MS: (M+H)^+ Calc: 5040.7, Found: 5040.5. Amino Acid Anal (6M HCl; 110° C., 72 h.): Asp, 4.12(4); Thr, 0.97(1); Ser, 3.65(4); Glu, 7.54(7); Gly, 2.99(3); Ala, 5.27(5); Val, 1.04(1); Met, 0.92(1); Ile, 2.01(2); Leu, 5.13(5); Tyr, 1.87(2); Phe, 0.91(1); Lys, 2.03(2); Arg, 5.54(6). […]

[2] = qualitative statement in background; comparison of the 44, 40 and 37 amino acid forms and the free acid; cited from earlier work

For GRF(1-44)-NH2, the “In vitro biological potency” value [1] is given as 0.92±0.22 and the “Level of activity / potency among GRF forms” value [2] is given as “full intrinsic activity and highest potency”.

In the case of “GRF(1-40)-OH (YADAIFTNSYRKVLGQLSARKLLQDIMSRQQGESNQERGA-OH; UniProt P01286 32-71, looked up, fragment) [free acid form of Growth Hormone Releasing Factor mentioned in the background, reference compound]”, the “Level of activity / potency among GRF forms” value [2] is given as “substantially lower level of activity”.
